According to patent US8426447B2, “Spiro-tricyclic ring compounds as beta-secretase modulators and methods of use” (Amgen Inc., priority 2008, dated 2013):

Experiments:
BACE1 [1] = biological target: T1, BACE1 (Homo sapiens, UniProt P56817); test: In Vitro Enzymatic BACE FRET (Fluorescence Resonance Energy Transfer) Assay; format: biochemical; settings: read-out: BACE1 FRET assay
Method in brief: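 Acetate buffer at pH 4.2 with 10% DMSO and 100 uM genapol hosts the enzymatic reaction, initiated by 50 nM FRET substrate and allowed to proceed one hour. Tris quench to neutral pH precedes the fluorescence measurement.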

BACE1 [2] = biological target: T1, BACE1; test: In Vitro BACE Cell-based Assay (HEK cell assay): Aβ40 in conditioned medium of cells stably expressing Amyloid Precursor Protein, sandwich ELISA; settings: read-out: HEK cell assay
Description: In Vitro BACE Cell-based Assay
The cell-based assay measures inhibition or reduction of Aβ40 in conditioned medium of test compound treated cells expressing amyloid precursor protein.
Cells stably expressing Amyloid Precursor Protein (APP) were plated at a density of 40K cells/well in 96 well plates (Costar). The cells were cultivated for 24 hours at 37° C. and 5% CO2 in DMEM supplemented with 10% FBS. The test compounds were then added to cells in 10-point dose response concentrations with the starting concentration being either 100 μM or 10 μM. The compounds were diluted from stock solutions in DMSO and the final DMSO concentration of the test compounds on cells was 0.1%. After 24 h of incubation with the test compounds the supernatant conditioned media was collected and the Aβ 40 levels were determined using a sandwich ELISA. The IC50 of the compound was calculated from the percent of control or percent inhibition of Aβ 40 as a function of the concentration of the test compound.
The sandwich ELISA to detect Aβ 40 was performed in 96 well microtiter plates, which were pre-treated with goat anti-rabbit IgG (Pierce). The capture and detecting antibody pair that were used to detect Aβ 40 from cell supernatants were affinity purified pAb40 (Biosource) and biotinylated 6E10 (Signet Labs Inc.), respectively. The optimal concentration for the pAb40 antibody was 3 μg/ml in Superblock/TBS (Pierce) that was supplemented with 0.05% Tween 20 (Sigma).
Cellular supernatants were incubated with the capture antibody for 3 h at 4° C., followed by 3 wash steps in TBS-tween (0.05%). The detecting antibody incubation was for 2 h at 4° C., again followed by the wash steps as described previously. The final readout of the ELISA is Time-Resolved Fluorescence (counts per minute) using Delfia reagents Streptavidin-Europium and Enhancement solutions (Perkin Elmer) and the Victor 2 multilabel counter (Perkin Elmer).

[3] = in vitro BACE FRET enzyme assay, IC50 class symbols
[4] = HEK cell-based assay, Aβ40 in conditioned medium, IC50 class symbols

T1 sequence (P56817 46-501, species assumed): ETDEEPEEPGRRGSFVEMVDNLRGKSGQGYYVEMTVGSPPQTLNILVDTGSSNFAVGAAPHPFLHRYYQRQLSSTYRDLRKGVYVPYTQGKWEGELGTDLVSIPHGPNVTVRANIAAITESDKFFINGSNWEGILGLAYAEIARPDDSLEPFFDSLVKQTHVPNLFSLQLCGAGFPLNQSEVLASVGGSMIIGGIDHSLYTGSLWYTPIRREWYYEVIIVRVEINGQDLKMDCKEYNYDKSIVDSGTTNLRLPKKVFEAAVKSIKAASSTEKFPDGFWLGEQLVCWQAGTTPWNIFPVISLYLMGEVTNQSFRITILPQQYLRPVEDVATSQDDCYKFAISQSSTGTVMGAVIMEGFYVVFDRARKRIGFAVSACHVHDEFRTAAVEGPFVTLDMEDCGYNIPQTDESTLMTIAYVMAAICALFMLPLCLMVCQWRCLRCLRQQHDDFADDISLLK

| SMILES | IC50 (BACE1 [1]; Table IV, class symbols) [µM] | IC50 (BACE1 [2]; Table IV, class symbols) [µM] | further results |
| --- | --- | --- | --- |
| CC(C)(C)COc1ccc2c(c1)[C@]1(COC(N)=N1)c1cc(CO)ccc1O2 [compound 828] | 1 to 5 | 1 to 5 |  |
| COC(=O)/C=C/c1ccc2c(c1)[C@@]1(COC(N)=N1)c1cc(Br)ccc1O2 [compound 169] |  |  | IC50 (BACE1 [1]; Table III, IC50's in uM ranges): 1 to 5 µM; IC50 (BACE1 [2]; Table III, IC50's in uM ranges): > 5 µM |
| COc1ccc2c(c1)C1(COC(N)=N1)c1cc(-c3cccnc3Cl)ccc1O2 (stereo not shown) [Example 21, 2′-(2-chloro-3-pyridinyl)-7′-methoxyspiro[1,3-oxazole-4,9′-xanthen]-2-amine trifluoroacetic acid] |  |  | IC50 (BACE1 [1]; Table 1): 1 to 5 µM; IC50 (BACE1 [2]; Table 1, Aβ40, 24 h incubation): > 5 µM |
| NC1=N[C@@]2(CO1)c1ccccc1Oc1ccc(-c3cc4ccccc4o3)cc12 [compound 587] | 1 to 5 | 1 to 5 |  |
| NC1=N[C@@]2(CO1)c1cc(-c3cc(F)ccc3F)ccc1Oc1ncc(C3=CCOCC3)cc12 [compound 487] |  |  | IC50 (BACE1 [1]): < 0.1 µM; IC50 (BACE1 [2]; HEK cells): < 0.1 µM |
| CC(C)(C)COc1ccc2c(c1)[C@]1(COC(N)=N1)c1cc(C(=O)NC3CC3)ccc1O2 [compound 798] | < 0.1 | < 0.1 |  |
| CC(C)(C)COc1ccc2c(c1)[C@]1(COC(N)=N1)c1cc(-c3cnc4ccccn34)ccc1O2 [compound 975] |  |  | IC50 (BACE1 [1]): 0.1 to 1 µM; IC50 (BACE1 [2]): 0.1 to 1 µM |
| CC(C)(C)COc1ccc2c(c1)[C@@]1(COC(N)=N1)c1cc(-c3cccnc3)cnc1O2 [Example 93, (5S)-7-(2,2-dimethylpropoxy)-3-(3-pyridinyl)spiro[chromeno[2,3-b]pyridine-5,4′-[1,3]oxazol]-2′-amine] |  |  | IC50 (BACE1 [1]; Table II): 0.1 to 1 µM; IC50 (BACE1 [2]; Table II, Aβ40, 24 h incubation): 0.1 to 1 µM |
| COc1ccc2c(c1)[C@]1(COC(N)=N1)c1cc(NC(=O)C(F)(F)F)ccc1O2 [compound 651] | 0.1 to 1 | 1 to 5 |  |
| CC(C)(C#N)COc1cnc2c(c1)[C@]1(COC(N)=N1)c1cc(-c3ccccc3F)ccc1O2 [compound 408] |  |  | IC50 (BACE1 [1]; [3]): < 0.1 µM; IC50 (BACE1 [2]; [4]): < 0.1 µM |
| CC(C)(C)C[C@@H](F)c1ccc2c(c1)[C@]1(COC(N)=N1)c1cc(-c3cncnc3)ccc1O2 [116b, (4S)-2′-((1R)-1-fluoro-3,3-dimethylbutyl)-7′-(5-pyrimidinyl)spiro[1,3-oxazole-4,9′-xanthen]-2-amine] |  |  | IC50 (BACE1 [1]; Table III, IC50's in uM ranges): < 0.1 µM; IC50 (BACE1 [2]; Table III, IC50's in uM ranges): 0.1 to 1 µM |
| COc1ccc2c(c1)[C@@]1(COC(N)=N1)c1cc(Br)cnc1O2 [compound 680] |  |  | IC50 (BACE1 [1]): > 5 µM; IC50 (BACE1 [2]): > 5 µM |
| NC1=N[C@]2(CO1)c1cc(C(=O)N3CCCC3)ccc1Oc1ccc(-c3cccnc3)cc12 [compound 945] |  |  | IC50 (BACE1 [1]): 0.1 to 1 µM; IC50 (BACE1 [2]): 0.1 to 1 µM |
| COc1ccc2c(c1)[C@@]1(N=C(N)O[C@H]1C)c1cc(-c3cncnc3)ccc1O2 (single isomer, unassigned) [Example 125b] |  |  | IC50 (BACE1 [1]; Table III, IC50's in uM ranges): 0.1 to 1 µM; IC50 (BACE1 [2]; Table III, IC50's in uM ranges): 0.1 to 1 µM |
| Cn1cc(-c2cc3c(cn2)Oc2ccc(-c4cccnc4F)cc2[C@@]32COC(N)=N2)cn1 [compound 333] |  |  | IC50 (BACE1 [1]; [3]): < 0.1 µM; IC50 (BACE1 [2]; [4]): < 0.1 µM |
| NC1=N[C@]2(CO1)c1cc(-c3ccc(OC(F)(F)F)cc3)ccc1Oc1ccc(-c3cncnc3)cc12 [compound 840] | < 0.1 | 0.1 to 1 |  |

Now from value to compound, other results behind:

| IC50 (BACE1 [1]; Table IV, class symbols) [µM] | IC50 (BACE1 [2]; Table IV, class symbols) [µM] | SMILES | further results |
| --- | --- | --- | --- |
| 0.1 to 1 | 1 to 5 | N#Cc1cccc(-c2ccc3c(c2)[C@]2(COC(N)=N2)c2cccnc2O3)c1 [compound 610] |  |
| < 0.1 | < 0.1 | CCOc1ccc(-c2cnc3c(c2)[C@]2(COC(N)=N2)c2cc(OCC(C)(C)C)ccc2O3)cn1 [compound 804] |  |
| < 0.1 | 0.1 to 1 | CN(C)C(=O)/C=C/c1ccc2c(c1)[C@]1(COC(N)=N1)c1cc(-c3cncnc3)ccc1O2 [compound 917] |  |
| < 0.1 | < 0.1 | COc1cncc(-c2ccc3c(c2)[C@@]2(COC(N)=N2)c2cc(C#CC(C)(C)C)cnc2O3)c1 [compound 643] |  |
| < 0.1 | 0.1 to 1 | NC1=N[C@]2(CO1)c1cc(OC[C@H](O)C(F)(F)F)ccc1Oc1ccc(-c3cccnc3)cc12 [compound 924] |  |
| < 0.1 | < 0.1 | CC(C)(O)C#Cc1cnc2c(c1)[C@]1(COC(N)=N1)c1cc(-c3ccc(F)nc3)ccc1O2 [compound 794] |  |
| < 0.1 | < 0.1 | Cc1ccc(-c2cnc3c(c2)[C@]2(COC(N)=N2)c2cc(C#CC(C)(C)O)ccc2O3)cc1 [compound 579] |  |
